Measured values: patent publication US20110306641A1, “NOVEL 2,6-SUBSTITUTED-3-NITROPYRIDINE DERIVATIVE, METHOD FOR PREPARING SAME, AND PHARMACEUTICAL PREPARATION INCLUDING SAME” (priority 2008, published 2011)

Assays:
[1] = tested on: osteoclastogenesis (formation of multinucleated osteoclasts); assay: Osteoclastogenesis inhibition via co-culture system (bone marrow cells + osteoblasts, TRAP staining); type: cell-based, mouse; settings: 7 days co-culture, vs vehicle control; for inhibition at 1 µM: Mus musculus, Osteoclast, 168 h; for Osteoclastogenesis inhibition (%): 1 μM
Experimental: Osteoclastogenesis inhibitory effects of the compounds of the present invention were evaluated via a co-culture system (Reference: Endocrinology 137(1996), 2187 to 2190, E. Jimi et al.). A specific experimental method is as follows.
1) Preparation of Bone Marrow Cells and Osteoblasts
Femur and tibia were aseptically dissected from 6 to 8-week-old male ddY mice to harvest bone marrow cells by a conventional method using a syringe. In brief, tissues were removed from the dissected bone, the bone ends were cut off with scissors, and the bone marrow was isolated by pushing a medium-containing syringe (23G) against the one end of the cut bone. The isolated bone marrow was subjected to repeated piston movement of a syringe such that single cells were obtained (Reference: Endocrinology 123(1988), 2600 to 2602, Takahashi et al.). After removal of red blood cells within the bone marrow, the bone marrow cells recovered by centrifugation were placed in an α-MEM supplemented with 10% fetal bovine serum (FBS), followed by counting of nucleated cells and then were immediately used for a co-culture system.
For the preparation of osteoblasts (Calvarial cells), the cranial bone were aseptically dissected from 1 to 2-day-old neonatal ICR mice and subjected to continuous reaction with a 0.2% collagenase solution to separate osteoblasts. The cell-suspended supernatant was centrifuged to recover osteoblasts which were grown to full confluence in an α-MEM supplemented with 10% FBS and then diluted to a desired cell density for use in the experiment.
2) Osteoclastogenesis Inhibition Experiment Via Co-Culture System
As the medium used for a co-culture system, a differentiation medium with the addition of differentiation factors 1α,25-dihydroxyvitamin D3 (10^−8M) and dexamethasone (10^−8M) to α-MEM supplemented with 10% FBS was used for the induction of osteoclastogenesis. First, the compounds of the present invention dissolved in dimethyl sulfoxide (DMSO) at a concentration of 1 mM were diluted to 2 μM using the above-mentioned differentiation medium. As a vehicle control group, 0.2% (v/v) DMSO was added to the medium. 100 μL/well of each medium was added to 96-well plates. In addition, the above prepared bone marrow cells and osteoblasts were plated onto 96-well plates at a density of 1×10^5 cells/50 μL/well and 3×10^3 cells/50 μL/well, respectively. The total volume/well was 200 μL and the final compound concentration was 1 μM. The control group was 0.1% (v/v) DMSO. The cells were cultured with exchange of the culture media with fresh media containing differentiation factors and test materials (materials containing the compounds of the present invention) at an interval of 2 to 3 days.
7 days after culturing of cells, the formation of multinucleated osteoclasts was confirmed by microscopic examination, the medium was removed from the wells and then the cells were fixed in a 10% phosphate-buffered formalin solution. The degree of formation of mature osteoclasts was measured taking advantage of the characteristics of osteoclasts showing a positive reaction to a tartrate-resistant acid phosphatase (TRAP) staining solution. The TRAP staining solution was prepared in a manner such that naphthol AS-MS phosphate as a substrate and a coloring agent (Fast Red Violet LB salt) were dissolved in N,N-dimethylformamide, and a 0.1N NaHCO3 buffer solution containing 50 mM of tartaric acid was added thereto. Among the TRAP-positive cells under a light microscope, multinucleated osteoclasts having 6 to 7 nuclei were regarded as mature osteoclasts.
The degree of inhibition of osteoclastogenesis was calculated according to the following equation 1. The results are summarized in Table 2 below (Experiments were carried out for 4 wells/experimental group (n=4), and the results are given in terms of mean±standard deviation) […]

Calvarial cell [2] = assay: Alkaline phosphatase (ALP) activity in osteoblasts (Calvarial cells); type: cell-based, mouse; settings: 3 days; for activity at 1 µM: Mus musculus, 72 h, read-out: ALP activity (1 μM, % of Control) Calvarial cell
Experimental: (§1) Differentiation and activity of osteoblasts were indirectly evaluated by measuring an ALP activity having a close relationship with osteogenesis.
(§2) Osteoblasts (Calvarial cells) prepared in Experimental Example 1 and MC3T3-E1 cells (available from RIKEN Cell Bank, Japan) were collected in α-MEM supplemented with 10% FBS, followed by cell counting. The cells were dispensed into 24-well cultureware at a density of 2×10^4 cells/well. After culturing of the cells for 24 hours, the culture media were discarded and replaced with fresh media in which test compounds were diluted to a concentration of 1 μM (1 mL/well). In addition, the vehicle control group containing 0.1% DMSO was also treated. Under the conditions where the compounds were treated, the cells were cultured in a 5% CO2 […] at 37° for 3 days. When the experiment was terminated, the supernatant was removed and the cells were washed three times with cold phosphate buffer at 4°. 0.2% Triton X-100 was added to the washed cells which were then subjected to three cycles of freezing at −70° and thawing at room temperature for the complete lysis of cells. The cell extracts were pooled and centrifuged to collect the cell supernatant which was used for the measurement of ALP activity and proteins. The protein concentration was measured using a BCA assay kit (manufactured by Sigma-Aldrich). For the measurement of ALP activity, p-nitrophenylphosphate was added to the cell supernatant which was then incubated at 37° for 30 minutes, and the reaction was terminated with the addition of 50 μL of 0.2N sodium hydroxide. The standard curve was plotted at the absorbance of 405 nm using p-nitrophenol as a standard material and then the absorbance of test materials thus reacted was measured to determine the production amount of p-nitrophenol.
(§3) The ALP activity was calculated by dividing the amount of p-nitrophenol produced from each test material by the protein amount and the reaction time. Therefore, the unit of ALP activity was given in terms of p-nitrophenol/μg protein/min. The results are given in Table 3 where the ALP activity unit of each test material was given in terms of % change through the comparison between the individual test materials and the vehicle control group.

Calvarial cell [3] = assay: Cytotoxicity test (MTT) in osteoblasts (calvarial cells); settings: 1 μM, 72 hours, vs vehicle control
Experimental: Drugs were diluted to a concentration of 2 μM in α-MEM culture media supplemented with 10% FBS. The vehicle control group was established to contain 0.2% DMSO. 100 μL/well of the diluted drugs were dispensed into 96-well plates to which osteoblasts (calvarial cells) prepared in Experimental Example 1 were then added at a density of 1.0×10^4 cells/100 μL/well. Here, the final compound concentration in the cell culture was 1 μM, and the vehicle control group contained 0.1% DMSO. The cells were cultured in a 5% CO2 inhibitorr at 37° for 72 hours. 25 μL of 3-(4,5-dimethyl-2-thiazolyl)-2,5-diphenyl-2H-tetrazolium bromide (MTT) dissolved in PBS (2 mg/mL) was added to each cell culture 4 hours before the end of culture. After completion of the reaction, the plates were centrifuged, the media were discarded, and 100 μL of formazan was added and dissolved in dimethyl sulfoxide (DMSO). Finally, the absorbance of the developed plates was measured at 540 nm. The cell viability was expressed as % concentration in comparison with the vehicle control group.

MC3T3-E1 cell = assay: Alkaline phosphatase (ALP) activity in MC3T3-E1 cells; type: cell-based; settings: 3 days; for activity at 1 µM: Mus musculus, 72 h, read-out: ALP activity (1 μM, % of Control) MC3T3-E1 cell
Experimental: as §1, §2, §3

Compound: CN1CCN(Nc2ccc([N+](=O)[O-])c(Nc3ccc4cn[nH]c4c3)n2)CC1 [Compound 23, 2-(1H-indazol-6-yl)amino-6-[(4-methylpiperazin-1-yl)amino]-3-nitropyridine]
- inhibition at 1 µM [1]: 92%
- activity at 1 µM (Calvarial cell [2]): 139%
- Cell viability (%) Calvarial cell (Calvarial cell [3]): 98%

Compound: CN1CCN(c2ccc([N+](=O)[O-])c(Nc3ccc4[nH]ncc4c3)n2)CC1 [Compound 39, 2-(1H-indazol-5-yl)amino-6-(4-methylpiperazin-1-yl)-3-nitropyridine]
- inhibition at 1 µM [1]: 80%
- activity at 1 µM (Calvarial cell [2]): 159%
- Cell viability (%) Calvarial cell (Calvarial cell [3]): 97%

Compound: O=[N+]([O-])c1ccc(NCc2ccccn2)nc1Nc1ccc2cn[nH]c2c1 [Compound 21, 2-(1H-indazol-6-yl)amino-6-[(2-pyridyl)methylamino]-3-nitropyridine]
- activity at 1 µM (Calvarial cell [2]): 115%
- Cell viability (%) Calvarial cell (Calvarial cell [3]): 96%

Compound: O=[N+]([O-])c1ccc(NN2CCOCC2)nc1Nc1ccc2cn[nH]c2c1 [Compound 24, 2-(1H-indazol-6-yl)amino-6-[(4-morpholin-1-yl)amino]-3-nitropyridine]
- Osteoclastogenesis inhibition (%) [1]: 86%
- ALP activity (1 μM, % of Control) Calvarial cell (Calvarial cell [2]): 107 % of Control
- Cell viability (%) Calvarial cell (Calvarial cell [3]): 110%

Compound: O=[N+]([O-])c1ccc(NCCN2CCOCC2)nc1Nc1ccc2[nH]ncc2c1 [Compound 37, 2-(1H-indazol-5-yl)amino-6-[(2-morpholino)ethylamino]-3-nitropyridine]
- activity at 1 µM (Calvarial cell [2]): 126%
- activity at 1 µM (MC3T3-E1 cell): 141%
- Cell viability (%) Calvarial cell (Calvarial cell [3]): 94%

Compound: CN(CCO)c1ccc([N+](=O)[O-])c(Nc2ccc3[nH]ncc3c2)n1 [Compound 7, 2-(1H-indazol-5-yl)amino-6-[(N-methyl-2-hydroxyethyl)amino]-3-nitropyridine]
- Osteoclastogenesis inhibition (%) [1]: 72%
- ALP activity (1 μM, % of Control) Calvarial cell (Calvarial cell [2]): 221 % of Control
- ALP activity (1 μM, % of Control) MC3T3-E1 cell (MC3T3-E1 cell): 155 % of Control
- Cell viability (%) Calvarial cell (Calvarial cell [3]): 103%

Compound: CC(C)c1nccn1-c1ccc([N+](=O)[O-])c(Nc2ccc3[nH]ncc3c2)n1 [Compound 3, 2-(1H-indazol-5-yl)amino-6-(2-isopropylimidazol-1-yl)-3-nitropyridine]
- inhibition at 1 µM [1]: 95%
- activity at 1 µM (Calvarial cell [2]): 148%
- activity at 1 µM (MC3T3-E1 cell): 172%
- Cell viability (%) Calvarial cell (Calvarial cell [3]): 118%

Compound: CC(C)(C)Nc1ccc([N+](=O)[O-])c(Nc2ccc3[nH]ncc3c2)n1 [Compound 12, 2-(1H-indazol-5-yl)amino-6-(t-butylamino)-3-nitropyridine]
- inhibition at 1 µM [1]: 99%
- activity at 1 µM (Calvarial cell [2]): 152%
- activity at 1 µM (MC3T3-E1 cell): 136%
- Cell viability (%) Calvarial cell (Calvarial cell [3]): 109%

Compound: O=[N+]([O-])c1ccc(NCCCn2ccnc2)nc1Nc1ccc2cn[nH]c2c1 [Compound 49, 2-(1H-indazol-6-yl)amino-6-[(3-imidazol-1-yl)propylamino]-3-nitropyridine]
- activity at 1 µM (Calvarial cell [2]): 129%
- Cell viability (%) Calvarial cell (Calvarial cell [3]): 95%

Compound: 2-(1H-indazol-5-yl)amino-6-(2-methyl-4,5-dihydroimidazol-1-yl)amino-3-nitropyridine [Compound 1]
- ALP activity (1 μM, % of Control) Calvarial cell (Calvarial cell [2]): 158 % of Control
- ALP activity (1 μM, % of Control) MC3T3-E1 cell (MC3T3-E1 cell): 168 % of Control

Compound: CN(C)c1ccc([N+](=O)[O-])c(Nc2ccc3[nH]ncc3c2)n1 [Compound 25, 2-(1H-indazol-5-yl)amino-6-(N,N-dimethylamino)-3-nitropyridine]
- inhibition at 1 µM [1]: 81%
- activity at 1 µM (Calvarial cell [2]): 128%
- Cell viability (%) Calvarial cell (Calvarial cell [3]): 106%

Compound: CN(C)CC(C)(C)CNc1ccc([N+](=O)[O-])c(Nc2ccc3[nH]ncc3c2)n1 [Compound 16, 2-(1H-indazol-5-yl)amino-6-[(3-dimethylamino-2,2-dimethyl)-propylamino]-3-nitropyridine]
- Osteoclastogenesis inhibition (%) [1]: 89%
- ALP activity (1 μM, % of Control) Calvarial cell (Calvarial cell [2]): 123 % of Control
- ALP activity (1 μM, % of Control) MC3T3-E1 cell (MC3T3-E1 cell): 144 % of Control
- Cell viability (%) Calvarial cell (Calvarial cell [3]): 104%

Compound: O=[N+]([O-])c1ccc(NC2CC2)nc1Nc1ccc2[nH]ncc2c1 [Compound 34, 2-(1H-indazol-5-yl)amino-6-(cyclopropylamino)-3-nitropyridine]
- inhibition at 1 µM [1]: 100%
- activity at 1 µM (Calvarial cell [2]): 154%
- Cell viability (%) Calvarial cell (Calvarial cell [3]): 93%

Compound: CN(C)CCNc1ccc([N+](=O)[O-])c(Nc2ccc3cn[nH]c3c2)n1 [Compound 20, 2-(1H-indazol-6-yl)amino-6-[2-(N,N-dimethylamino)ethylamino]-3-nitropyridine]
- inhibition at 1 µM [1]: 90%
- activity at 1 µM (Calvarial cell [2]): 119%

Compound: COCC(C)Nc1ccc([N+](=O)[O-])c(Nc2ccc3[nH]ncc3c2)n1 (stereo not shown) [Compound 22, 2-(1H-indazol-5-yl)amino-6-[(1-methyl-2-methoxy)ethylamino]-3-nitropyridine]
- Osteoclastogenesis inhibition (%) [1]: 100%
- ALP activity (1 μM, % of Control) Calvarial cell (Calvarial cell [2]): 119 % of Control
- Cell viability (%) Calvarial cell (Calvarial cell [3]): 99%

Compound: CC(C)Nc1ccc([N+](=O)[O-])c(Nc2ccc3cn[nH]c3c2)n1 [Compound 33, 2-(1H-indazol-6-yl)amino-6-(isopropylamino)-3-nitropyridine]
- activity at 1 µM (Calvarial cell [2]): 122%
- Cell viability (%) Calvarial cell (Calvarial cell [3]): 97%

Compound: O=[N+]([O-])c1ccc(N2CCN(CCO)CC2)nc1Nc1ccc2cn[nH]c2c1 [Compound 19, 2-(1H-indazol-6-yl)amino-6-[4-(2-hydroxyethyl)piperazin-1-yl]-3-nitropyridine]
- inhibition at 1 µM [1]: 90%
- activity at 1 µM (Calvarial cell [2]): 132%
- Cell viability (%) Calvarial cell (Calvarial cell [3]): 100%

Compound: O=[N+]([O-])c1ccc(NC(CO)CO)nc1Nc1ccc2[nH]ncc2c1 [Compound 35, 2-(1H-indazol-5-yl)amino-6-[(2-hydroxy-1-hydroxymethyl)-ethylamino]-3-nitropyridine]
- ALP activity (1 μM, % of Control) MC3T3-E1 cell (MC3T3-E1 cell): 123 % of Control
- Cell viability (%) Calvarial cell (Calvarial cell [3]): 104%

Compound: O=[N+]([O-])c1ccc(NCc2ccncc2)nc1Nc1ccc2cn[nH]c2c1 [Compound 26, 2-(1H-indazol-6-yl)amino-6-[(4-pyridyl)methylamino]-3-nitropyridine]
- inhibition at 1 µM [1]: 78%
- activity at 1 µM (Calvarial cell [2]): 113%
- Cell viability (%) Calvarial cell (Calvarial cell [3]): 106%
